Columns and labels:
PTPN2 [1] = test: HiBiT-Degradation B16F10.4 PTPN2; type: cell-based; conditions: B16F10.4 cells, 24.0 hours
PTPN2 [2] = molecular target: T1, PTPN2 (Homo sapiens, UniProt P17706); test: HiBiT-Degradation 293T.109 PTPN2 (Nano-Glo HiBiT Lytic Assay); type: cell-based; conditions: 293T.109 (HiBiT-PTPN2) cells, 24.0 hours
T1 construct: expressed in transfected cells; host or cells: 293T (293T.109 HiBiT-PTPN2 line; parental 293T WT from ATCC)
T1 sequence (P17706 1-415): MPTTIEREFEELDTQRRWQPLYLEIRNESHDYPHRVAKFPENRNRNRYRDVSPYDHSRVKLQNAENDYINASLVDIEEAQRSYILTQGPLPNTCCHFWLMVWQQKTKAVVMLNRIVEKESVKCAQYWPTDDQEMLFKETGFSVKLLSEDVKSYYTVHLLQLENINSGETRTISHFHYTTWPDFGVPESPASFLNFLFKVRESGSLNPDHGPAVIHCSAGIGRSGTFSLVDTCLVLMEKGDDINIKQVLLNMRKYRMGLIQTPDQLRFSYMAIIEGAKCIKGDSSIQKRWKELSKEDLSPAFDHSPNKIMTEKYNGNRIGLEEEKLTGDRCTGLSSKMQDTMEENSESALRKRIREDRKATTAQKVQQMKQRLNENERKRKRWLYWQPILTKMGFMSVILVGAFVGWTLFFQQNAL
In short: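 293T cells ectopically expressing N-terminally HiBiT-tagged PTPN2 were seeded at 5000 cells/well. They were treated with an 11-point half-log titration from 10 μM, in duplicate, for 24 hours at 37° C., 5% CO2. Remaining tagged PTPN2 was quantified by lytic HiBiT luminescence against untreated and no-reagent controls.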

Row | SMILES | DC50 (PTPN2 [1]) | DC50 (PTPN2 [2])
1 | Cn1c(=O)n(C2CCC(=O)NC2=O)c2ccc(-c3ccc(CC(=O)Nc4ccc5c(F)c(N6CC(=O)NS6(=O)=O)c(O)cc5c4)cc3F)cc21 (stereo not drawn) [Example 118, N-(6-(1,1-dioxido-4-oxo-1,2,5-thiadiazolidin-2-yl)-5-fluoro-7-hydroxynaphthalen-2-yl)-2-(4-(1-(2,6-dioxopiperidin-3-yl)-3-methyl-2-oxo-2,3-dihydro-1H-benzo[d]imidazol-5-yl)-3-fluorophenyl)acetamide] | 10 to 50 nM | 50 to 200 nM
2 | O=C(CN1CCC(c2ccc3c4c(cccc24)C(=O)N3C2CCC(=O)NC2=O)CC1)NCCOc1ccc2cc(O)c(N3CC(=O)NS3(=O)=O)c(F)c2c1 (stereo not drawn) [Example 7, N-(2-((7-(1,1-dioxido-4-oxo-1,2,5-thiadiazolidin-2-yl)-8-fluoro-6-hydroxynaphthalen-2-yl)oxy)ethyl)-2-(4-(1-(2,6-dioxopiperidin-3-yl)-2-oxo-1,2-dihydrobenzo[cd]indol-6-yl)piperidin-1-yl)acetamide] | 10 to 50 nM | 10 to 50 nM
3 | Cn1c(=O)n(C2CCC(=O)NC2=O)c2ccc(C3CCN(C(=O)CN4CC[C@@H](COc5ccc6cc(O)c(N7CC(=O)NS7(=O)=O)c(F)c6c5)C4)CC3)cc21 (stereo partly drawn) [Example 141, 3-[5-[1-[2-[(3R)-3-[[8-fluoro-6-hydroxy-7-(1,1,4-trioxo-1,2,5-thiadiazolidin-2-yl)-2-naphthyl]oxymethyl]pyrrolidin-1-yl]acetyl]-4-piperidyl]-3-methyl-2-oxo-benzimidazol-1-yl]piperidine-2,6-dione] | 50 to 200 nM | 10 to 50 nM
4 | Cn1c(=O)n(C2CCC(=O)NC2=O)c2ccc(-c3ccc(NC(=O)NCCOc4ccc5cc(O)c(N6CC(=O)NS6(=O)=O)c(F)c5c4)cc3)cc21 (stereo not drawn) [Example 139, 1-[4-[1-(2,6-dioxo-3-piperidyl)-3-methyl-2-oxo-benzimidazol-5-yl]phenyl]-3-[2-[[8-fluoro-6-hydroxy-7-(1,1,4-trioxo-1,2,5-thiadiazolidin-2-yl)-2-naphthyl]oxy]ethyl]urea] | 50 to 200 nM | 50 to 200 nM
5 | O=C1CCC(N2C(=O)c3ccc(NCc4cn(CCC(=O)Nc5ccc6c(F)c(N7CC(=O)NS7(=O)=O)c(O)cc6c5)nn4)cc3C2=O)C(=O)N1 (stereo not drawn) [Example 14, N-(6-(1,1-dioxido-4-oxo-1,2,5-thiadiazolidin-2-yl)-5-fluoro-7-hydroxynaphthalen-2-yl)-3-(4-(((2-(2,6-dioxopiperidin-3-yl)-1,3-dioxoisoindolin-5-yl)amino)methyl)-1H-1,2,3-triazol-1-yl)propanamide] | 200 to 1000 nM | 200 to 1000 nM
6 | O=C(CN1CCC(c2ccc(NC3CCC(=O)NC3=O)c(Oc3ccccc3)c2)CC1)NCCOc1ccc2cc(O)c(N3CC(=O)NS3(=O)=O)c(F)c2c1 (stereo not drawn) [Example 96, 2-[4-[4-[(2,6-dioxo-3-piperidyl)amino]-3-phenoxy-phenyl]-1-piperidyl]-N-[2-[[8-fluoro-6-hydroxy-7-(1,1,4-trioxo-1,2,5-thiadiazolidin-2-yl)-2-naphthyl]oxy]ethyl]acetamide] | 50 to 200 nM | 50 to 200 nM
7 | Cn1c(=O)n(C2CCC(=O)NC2=O)c2cccc(C3CCN(CC(=O)Nc4ccc5c(F)c(N6CC(=O)NS6(=O)=O)c(O)cc5c4)CC3)c21 (stereo not drawn) [Example 25, 2-[4-[1-(2,6-dioxo-3-piperidyl)-3-methyl-2-oxo-benzimidazol-4-yl]-1-piperidyl]-N-[5-fluoro-7-hydroxy-6-(1,1,4-trioxo-1,2,5-thiadiazolidin-2-yl)-2-naphthyl]acetamide] | ≥ 1000 nM | 200 to 1000 nM
8 | Cn1nc(C2CCC(=O)NC2=O)c2ccc([C@H]3CC[C@H](CC(=O)Nc4ccc5c(F)c(N6CC(=O)NS6(=O)=O)c(O)cc5c4)CC3)cc21 (single isomer, unassigned) [Example 179, N-(6-(1,1-dioxido-4-oxo-1,2,5-thiadiazolidin-2-yl)-5-fluoro-7-hydroxynaphthalen-2-yl)-2-((trans)-4-(3-(2,6-dioxopiperidin-3-yl)-1-methyl-1H-indazol-6-yl)cyclohexyl)acetamide] | 200 to 1000 nM | 10 to 50 nM
9 | O=C(CCOCCNC(=O)CNc1cccc2c1CN(C1CCC(=O)NC1=O)C2=O)NCCOc1ccc2cc(O)c(N3CC(=O)NS3(=O)=O)c(F)c2c1 (stereo not drawn) [Example 45] | ≥ 1000 nM | 200 to 1000 nM
10 | Cn1c(=O)n(C2CCC(=O)NC2=O)c2ccc(Nc3ccc(C(=O)Nc4ccc5c(F)c(N6CC(=O)NS6(=O)=O)c(O)cc5c4)cc3)cc21 (stereo not drawn) [Example 104, 4-[[1-(2,6-dioxo-3-piperidyl)-3-methyl-2-oxo-benzimidazol-5-yl]amino]-N-[5-fluoro-7-hydroxy-6-(1,1,4-trioxo-1,2,5-thiadiazolidin-2-yl)-2-naphthyl]benzamide] | 50 to 200 nM | 50 to 200 nM
11 | O=C1CCC(N2C(=O)c3cccc4c(C5CCN(CC(=O)Nc6ccc7c(F)c(N8CC(=O)NS8(=O)=O)c(O)cc7c6)CC5)ccc2c34)C(=O)N1 (stereo not drawn) [Example 26, 2-[4-[1-(2,6-dioxo-3-piperidyl)-2-oxo-benzo[cd]indol-6-yl]-1-piperidyl]-N-[5-fluoro-7-hydroxy-6-(1,1,4-trioxo-1,2,5-thiadiazolidin-2-yl)-2-naphthyl]acetamide] | 50 to 200 nM | 50 to 200 nM
12 | Cn1c(=O)n(C2CCC(=O)NC2=O)c2ccc(NC3CCN(CCNc4ccc5c(F)c(N6CC(=O)NS6(=O)=O)c(O)cc5c4)CC3)cc21 (stereo not drawn) [Example 53] | ≥ 1000 nM | 200 to 1000 nM
13 | Cn1c(=O)n(C2CCC(=O)NC2=O)c2ccc(C3CCN(CC(=O)N4CC(c5ccc6c(F)c(N7CC(=O)NS7(=O)=O)c(O)cc6c5)C4)CC3)cc21 (stereo not drawn) [Example 115, 3-(5-(1-(2-(3-(6-(1,1-dioxido-4-oxo-1,2,5-thiadiazolidin-2-yl)-5-fluoro-7-hydroxynaphthalen-2-yl)azetidin-1-yl)-2-oxoethyl)piperidin-4-yl)-3-methyl-2-oxo-2,3-dihydro-1H-benzo[d]imidazol-1-yl)piperidine-2,6-dione] | 200 to 1000 nM | 200 to 1000 nM
14 | Cn1nc(C2CCC(=O)NC2=O)c2ccc(C3CCN(CC(=O)Nc4ccc5c(F)c(N6CC(=O)NS6(=O)=O)c(O)cc5c4)CC3(F)F)cc21 (stereo not drawn) [Example 114, N-(6-(1,1-dioxido-4-oxo-1,2,5-thiadiazolidin-2-yl)-5-fluoro-7-hydroxynaphthalen-2-yl)-2-(4-(3-(2,6-dioxopiperidin-3-yl)-1-methyl-1H-indazol-6-yl)-3,3-difluoropiperidin-1-yl)acetamide] | 50 to 200 nM | 50 to 200 nM
15 | Cn1c(=O)n(C2CCC(=O)NC2=O)c2ccc(C3CCN(CCN4CC=C(c5ccc6cc(O)c(N7CC(=O)NS7(=O)=O)c(F)c6c5)CC4)CC3)cc21 (stereo not drawn) [Example 121, 3-[5-[1-[2-[4-[8-fluoro-6-hydroxy-7-(1,1,4-trioxo-1,2,5-thiadiazolidin-2-yl)-2-naphthyl]-3,6-dihydro-2H-pyridin-1-yl]ethyl]-4-piperidyl]-3-methyl-2-oxo-benzimidazol-1-yl]piperidine-2,6-dione] | 50 to 200 nM | 10 to 50 nM
16 | O=C(CCC1CCN(C(=O)CNc2cccc3c2C(=O)N(C2CCC(=O)NC2=O)C3=O)CC1)NCCOc1ccc2cc(O)c(N3CC(=O)NS3(=O)=O)c(F)c2c1 (stereo not drawn) [Example 41] | ≥ 1000 nM | 200 to 1000 nM
17 | Cn1c(=O)n(C2CCC(=O)NC2=O)c2ccc(N3CCC(CC(=O)N4CCC[C@H](COc5ccc6cc(O)c(N7CC(=O)NS7(=O)=O)c(F)c6c5)C4)CC3)cc21 (stereo partly drawn) [Example 143, 3-[5-[4-[2-[(3S)-3-[[8-fluoro-6-hydroxy-7-(1,1,4-trioxo-1,2,5-thiadiazolidin-2-yl)-2-naphthyl]oxymethyl]-1-piperidyl]-2-oxo-ethyl]-1-piperidyl]-3-methyl-2-oxo-benzimidazol-1-yl]piperidine-2,6-dione] | 200 to 1000 nM | 200 to 1000 nM
18 | O=C1CCC(N2Cc3c(NCC(=O)N4CC(C(=O)NCCOc5ccc6cc(O)c(N7CC(=O)NS7(=O)=O)c(F)c6c5)C4)cccc3C2=O)C(=O)N1 (stereo not drawn) [Example 36] | 200 to 1000 nM | 200 to 1000 nM
